In patent US6812036B2 (priority 2000, dated 2004) one finds cross-reactivity data, which are given here for 2 compounds.

The subject of the experiment is Antibody #1. It is filed as binding, mice.

Regarding `CC(=O)OC[C@]12C[C@H](OC(=O)CC(C)C)C(C)=C[C@H]1O[C@@H]1[C@H](O)[C@@H](O)[C@@]2(C)[C@]12CO2` [HT-2 toxin], the cross-reactivity stood at 9%.
To `CC(=O)OC[C@]12[C@H](O)C(=O)C(C)=C[C@H]1O[C@@H]1[C@H](O)C[C@@]2(C)[C@]12CO2` [15-acetyl-deoxynivalenol] belongs 358%.
